Experimental data: article PMC10598831 (JACS Au, 2023)

Legend:
GDI2 [1] = molecular target: T1, GDI2 (Homo sapiens, UniProt P50395); test: GDI2 degradation by Western blot, AsPC-1 cells; assay type: cell-based
T1 sequence (P50395 1-445): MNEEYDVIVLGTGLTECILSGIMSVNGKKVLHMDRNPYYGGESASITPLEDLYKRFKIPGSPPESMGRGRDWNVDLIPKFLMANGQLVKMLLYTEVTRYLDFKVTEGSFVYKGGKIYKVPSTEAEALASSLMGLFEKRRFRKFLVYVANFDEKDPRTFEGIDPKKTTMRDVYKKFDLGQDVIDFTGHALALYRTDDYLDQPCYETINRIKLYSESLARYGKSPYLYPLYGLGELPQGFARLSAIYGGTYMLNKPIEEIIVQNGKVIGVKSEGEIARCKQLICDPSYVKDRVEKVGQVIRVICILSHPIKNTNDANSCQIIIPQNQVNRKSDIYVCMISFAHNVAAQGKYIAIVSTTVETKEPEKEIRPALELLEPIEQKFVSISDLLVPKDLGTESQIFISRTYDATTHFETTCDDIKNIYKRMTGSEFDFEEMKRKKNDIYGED

GDI2 [2] = molecular target: T1, GDI2; test: Biolayer interferometry; assay type: binding
AsPC-1 xenograft = test: AsPC-1 pancreatic carcinoma xenograft model; assay type: in vivo, mouse
GDI1 = molecular target: T2, GDI1 (Homo sapiens, UniProt P31150); test: GDI1 level by Western blot, AsPC-1 cells; assay type: cell-based; settings: up to 10 μM
T2 sequence (P31150 1-447): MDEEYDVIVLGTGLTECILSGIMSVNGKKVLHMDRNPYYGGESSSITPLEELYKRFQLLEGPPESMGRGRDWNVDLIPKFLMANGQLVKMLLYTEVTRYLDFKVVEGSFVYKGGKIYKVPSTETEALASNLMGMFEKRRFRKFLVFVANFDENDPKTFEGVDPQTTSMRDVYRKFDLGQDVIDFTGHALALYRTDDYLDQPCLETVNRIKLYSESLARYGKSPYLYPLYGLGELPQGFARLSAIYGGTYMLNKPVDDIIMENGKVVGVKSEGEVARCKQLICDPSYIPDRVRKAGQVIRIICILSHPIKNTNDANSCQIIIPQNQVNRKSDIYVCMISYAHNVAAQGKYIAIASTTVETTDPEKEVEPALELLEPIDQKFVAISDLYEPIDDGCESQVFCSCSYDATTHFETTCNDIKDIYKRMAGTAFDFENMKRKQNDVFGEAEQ

PDAC PDX tumors = test: Pancreatic adenocarcinoma PDX model; assay type: in vivo, mouse

Cc1cc(C)cc(COc2cc3c(cc2OCc2cc(C)cc(C)c2)[C@H]2C[C@](O)(Cc4cn(CCOCCOCCOCCNC(=O)[C@@H](CC(C)C)NC(=O)[C@@H](O)[C@H](N)Cc5ccccc5)nn4)C[C@H](C)N2CC3)c1 [Compound 21]
Dmax (GDI2 [1]; ASPC1, read-out: GDI2 Dmax): 84.2%
GDI2 depleted (GDI2 [1]; AsPC-1 cells, after 9 h of treatment): > 70%
DC50 (GDI2 [1]; read-out: GDI2 DC50, AsPC-1 cells, 0.63–10 μM, 24 h, n = 3): 1.48 µM
Kd (GDI2 [2]): 23.9 µM
GDI2 not restored in tumor tissue (AsPC-1 xenograft; 15 mg/kg ip., 72 h post final injection, Western blot): more than 90%
Toxicity (body weight, histopathology of major organs) (AsPC-1 xenograft; 18 days of treatment): No significant signs of toxicity
Tumor growth vs vehicle (AsPC-1 xenograft; (+)-37 25 or 40 mg/kg ip., 21 15 mg/kg ip., every 3 days, 18 days): significantly attenuated tumor growth
Effect on GDI1 protein level (GDI1): without affecting the GDI1 protein level
Toxicity (PDAC PDX tumors; 18 days of treatment): without significant toxicity
PDAC tumor growth (PDAC PDX tumors; (+)-37 40 mg/kg ip., 21 15 mg/kg ip., every 3 days, 18 days): successfully suppressed PDAC tumor growth
